Measurements taken from patent US20240050406A1, “COMPOSITION COMPRISING OXIRACETAM FOR PREVENTING OR TREATING MUSCULAR DISEASE” (KSB TUGEN INC., priority 2021, published 2024).

Columns and labels:
[1] = tested on: dexamethasone-induced muscular atrophy animal model; assay: Dexamethasone-induced muscular atrophy animal model (Experimental Example 1); format: in vivo, ICR mice; details: compared to dexamethasone-treated group (excipient)
Source text: 1-1. Preparation of experimental animals and samples For an experimental group in the present invention, oxiracetam
having a structure of Formula 1 was purchased from Tokyo Chemical Industry (Japan; Product No. 00398, CAS RN:62613-82-5, purity: 96%) and used. As experimental animals, 7-week-old male ICR mice were
purchased and used. Until the day of the experiment, general feed (EEGJ30060: Cargill Agri Purina, Seongnam, Korea) and water were sufficiently supplied to the experimental animals, and the animals were acclimated for 1 week under an environment of a temperature of 23±2° C., a humidity of 55±10%, and a light-dark cycle of 12 hours-12 hours and used in the experiment.
After the acclimation period for the experimental animals, to create a muscular atrophy model, the mice were randomly divided into groups of 10 animals, such as a normal group (n=10), a dexamethasone-treated group (n=10), and an oxiracetam-administered group (n=10). The groups except for the normal group were intraperitoneally injected with dexamethasone at a dose of 10 mg/kg from day 7 to day 21 for 14 days. In the case of the oxiracetam-administered group, 7 days before the intraperitoneal administration of dexamethasone, oxiracetam was orally administered using a Zonde needle at a dose of 30 mg/kg/day once a day for 21 days. During the same period, the normal group was administered no drug, and 100 μL of normal saline was orally administered at a time.
The lean body mass for the gastrocnemius muscle (GS) and tibialis anterior (TA) for each group was measured every 7 days. Specifically, animal models of each group were anesthetized using 3% isoflurane, fixed to a photographing bed, and then photographed. The respiration rates and temperatures of the animal models during photographing were measured using an animal monitoring system (SA Instruments, USA).
The whole body of the animal model was photographed through dual energy X-ray absorptiometry (DEXA) using iNSiGHT VET DXA (Osteosys, KR), and the lean body mass of each of the gastrocnemius muscle (GS) and the tibialis anterior (TA) was measured and calculated from the two-dimensional images of the gastrocnemius muscle (GS) and the tibialis anterior (TA) by a program using the region of interest (ROI).
To measure grip strength, a grip strength test was performed. […] The grip strength was measured once every 2 days and 11 times for each mouse.
Tibialis anterior diameters (T1) were measured from two-dimensional images captured by dual-energy X-ray absorptiometry (DEXA) for each group and compared.
First, the experimental animals in each group were acclimatized to a treadmill machine twice before measurement (1st round: inclination 10°, 10 minutes at 5 m/min and 10 minutes at 10 m/min; 2n d round: inclination 10°, 5 minutes at 5 m/min and 15 minutes at 10 m/min). On the day of the experiment, the experimental animals were allowed to run for 20 minutes at an initial speed of 10 m/min at an inclination of 10°, and then the speed was increased by 2 m/min every 2 minutes, and then the running distance and time were measured with the end point when the experimental animal stayed for 10 seconds without running.
Statistical processing was performed using GraphPad Prism (GraphPad Software Inc., San Diego, CA, USA). The results of each repeated experiment were expressed as mean±standard error of mean, and analyzed using the analysis of variance (Tukey's test), and statistical significance was acknowledged when the P-value was 0.05 or less.

C2C12 myotubes = assay: Myotube diameter in TNF-α muscular atrophy cell model (Experimental Example 7); format: cell-based, mouse
Procedure: A mouse-derived C2C12 cell line was provided from the American Type Culture Collection (ATCC, CRL-1772; Manassas, VA, USA) and cultured at 37° C. in 5% CO2. In the proliferation phase of the cells before differentiation, high concentration glucose Dulbecco's modified Eagle's medium (DMEM) containing 1% penicillin/streptomycin and 10% fetal bovine serum (FBS) medium were used, and in the differentiation induction, the FBS medium was replaced with a 2% horse serum (HS)-containing medium. The C2C12 myoblasts were seeded into a 96 well culture plate and a 6 well culture plate at 2×10^5/well and 5×10^3/well, respectively, and cultured at 37° C. in a CO2 incubator. When the confluency reached approximately 90%, the medium was replaced with 2% horse serum (HS)-containing DMEM to induce differentiation of myoblasts. After 5 days, the C2C12 myotubes that had differentiated were treated with 10 ng/ml TNF-α, which is an inflammatory factor, for 48 hours to cause myotube atrophy, thereby creating a muscular atrophy cell model, TNF-α-treated group (TNF-α). During the TNF-α treatment, 10 μM oxiracetam was treated to create an oxiracetam-treated group (Oxiracetam 10 μM), cells that were not treated during the same period were prepared as a control. Two days after TNF-α and oxiracetam treatment, each of the TNF-α-treated group (TNF-α), the oxiracetam-treated group (Oxiracetam 10 μM) and the control was treated with an ATP detection reagent at room temperature, and then luminescence was measured using a mitochondrial ToxGlo™ assay kit (Promega). In addition, the TNF-α-treated group (TNF-α), the oxiracetam-treated group (Oxiracetam 10 μM) and the control were photographed using an optical microscope and the diameter of a myotube cell in each group were measured and compared. Statistical processing was performed using GraphPad Prism (GraphPad Software Inc., San Diego, CA, USA).

[2] = oxiracetam 30 mg/kg/day oral 21 days + dexamethasone, DEXA

Which results are given for `NC(=O)CN1CC(O)CC1=O` (racemic) [oxiracetam, (RS)-2-(4-hydroxy-2-oxopyrrolidin-1-yl)acetamide]?
tibialis anterior (TA) diameter (T1) ([1]; oxiracetam 30 mg/kg/day oral 21 days + dexamethasone 10 mg/kg i.p. day 7-21, DEXA): significantly increased; lean body mass of the gastrocnemius muscle (GS) [1, 2]: the decrease was significantly suppressed; lean body mass of the tibialis anterior (TA) [1, 2]: the decrease was significantly suppressed; grip strength ([1]; oxiracetam 30 mg/kg/day oral 21 days + dexamethasone): significantly increased; exercise stress test (treadmill): athletic ability ([1]; oxiracetam 30 mg/kg/day oral + dexamethasone): significant improvement; diameter of a myotube (C2C12 myotubes; TNF-α 10 ng/ml 48 h + oxiracetam 10 μM, compared to TNF-α-treated group): significant increase; diameter of a myotube relative to control (C2C12 myotubes; TNF-α 10 ng/ml 48 h with oxiracetam 10 μM or 0 μM, relative to non-treated control): recovers to a level similar to the control
